PubChem BioAssay AID1963422 (Molecular Pharmacology Branch, DTP, NCI, 2024)
pIC50: −log10 of the molar value.

Test system: 463943-066-T-J2-PDC complex spheroid growth
Assay: Anticancer human tumor 463943-066-T-J2-PDC patient-derived colon adenocarcinoma cell line growth inhibition [Asc]
Details: for pIC50: curve of first compound; for viability, T/C: stronger effect = lower value
Procedure, shortened: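 Tumor cells were grown as multicellular spheroids with stromal HUVEC and mesenchymal stem cells and treated singly or in combination. Concentrations fell in half-log steps from the clinical Cmax, or from 10 microM where none was known.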

[1] = second compound 0.0316 µM, first compound 0.00316 µM
[2] = second compound 0.0316 µM, first compound 0.01 µM
[3] = second compound 0.0316 µM, first compound 0.0316 µM
[4] = second compound 0.0316 µM, first compound 0.1 µM
[5] = second compound 0.0316 µM, first compound 0.316 µM
[6] = second compound 0.0316 µM, first compound 1 µM
[7] = second compound 0.1 µM, first compound 0.00316 µM
[8] = second compound 0.1 µM, first compound 0.01 µM
[9] = second compound 0.1 µM, first compound 0.0316 µM
[10] = second compound 0.1 µM, first compound 0.1 µM
[11] = second compound 0.1 µM, first compound 0.316 µM
[12] = second compound 0.1 µM, first compound 1 µM
[13] = second compound 0.316 µM, first compound 0.00316 µM
[14] = second compound 0.316 µM, first compound 0.01 µM
[15] = second compound 0.316 µM, first compound 0.0316 µM
[16] = second compound 0.316 µM, first compound 0.1 µM
[17] = second compound 0.316 µM, first compound 0.316 µM
[18] = second compound 0.316 µM, first compound 1 µM
[19] = second compound 1 µM, first compound 0.00316 µM
[20] = second compound 1 µM, first compound 0.01 µM
[21] = second compound 1 µM, first compound 0.0316 µM
[22] = second compound 1 µM, first compound 0.1 µM
[23] = second compound 1 µM, first compound 0.316 µM
[24] = second compound 1 µM, first compound 1 µM
[25] = second compound 0.0316 µM, first compound 3.16 µM
[26] = second compound 0.0316 µM, first compound 10 µM
[27] = second compound 0.1 µM, first compound 3.16 µM
[28] = second compound 0.1 µM, first compound 10 µM
[29] = second compound 0.316 µM, first compound 3.16 µM
[30] = second compound 0.316 µM, first compound 10 µM
[31] = second compound 1 µM, first compound 3.16 µM
[32] = second compound 1 µM, first compound 10 µM
[33] = second compound 3.16 µM, first compound 0.0316 µM
[34] = second compound 3.16 µM, first compound 0.1 µM
[35] = second compound 3.16 µM, first compound 0.316 µM
[36] = second compound 3.16 µM, first compound 1 µM
[37] = second compound 3.16 µM, first compound 3.16 µM
[38] = second compound 3.16 µM, first compound 10 µM
[39] = second compound 10 µM, first compound 0.0316 µM
[40] = second compound 10 µM, first compound 0.1 µM
[41] = second compound 10 µM, first compound 0.316 µM
[42] = second compound 10 µM, first compound 1 µM
[43] = second compound 10 µM, first compound 3.16 µM
[44] = second compound 10 µM, first compound 10 µM
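Also: compound exposure lasted 7 days.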
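For viability, T/C in this document: 100% = DMSO vehicle control wells.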

With `CCN1CCN(Cc2ccc(Nc3ncc(F)c(-c4cc(F)c5nc(C)n(C(C)C)c5c4)n3)nc2)CC1` + CNC(C)C(=O)NC1CN(S(=O)(=O)c2cccc(S(=O)(=O)N3CCC4CCC(C(=O)NC(c5ccccc5)c5ccccc5)N4C(=O)C(NC(=O)C(C)NC)C3)c2)CCC2CCC(C(=O)NC(c3ccccc3)c3ccccc3)N2C1=O the pIC50 (second compound 0.00316 µM) was under 6.00, the pIC50 (second compound 0.01 µM) was under 6.00 and the pIC50 (second compound 0.0316 µM) was under 6.00. The pIC50 (second compound 0.1 µM) was under 6.00, the pIC50 (second compound 0.316 µM) was under 6.00 and the pIC50 (second compound 1 µM) was under 6.00. It also gave a viability, T/C (second compound 0.00316 µM, first compound 0.00316 µM) of 87.7%, a viability, T/C (second compound 0.00316 µM, first compound 0.01 µM) of 92.7% and a viability, T/C (second compound 0.00316 µM, first compound 0.0316 µM) of 88%. For the same compound, the viability, T/C (second compound 0.00316 µM, first compound 0.1 µM) was 93.6%, the viability, T/C (second compound 0.00316 µM, first compound 0.316 µM) was 109% and the viability, T/C (second compound 0.00316 µM, first compound 1 µM) was 120%. For the same compound, the viability, T/C (second compound 0.01 µM, first compound 0.00316 µM) was 99.2%, the viability, T/C (second compound 0.01 µM, first compound 0.01 µM) was 102% and the viability, T/C (second compound 0.01 µM, first compound 0.0316 µM) was 99.8%. For the same compound, the viability, T/C (second compound 0.01 µM, first compound 0.1 µM) was 92.2%, the viability, T/C (second compound 0.01 µM, first compound 0.316 µM) was 123% and the viability, T/C (second compound 0.01 µM, first compound 1 µM) was 121%. The viability, T/C [1] was 103%, the viability, T/C [2] was 108% and the viability, T/C [3] was 94.9%. For the same compound, the viability, T/C [4] was 101%, the viability, T/C [5] was 116% and the viability, T/C [6] was 128%. For the same compound, the viability, T/C [7] was 89%, the viability, T/C [8] was 92.3% and the viability, T/C [9] was 89.6%. It also gave a viability, T/C [10] of 95.5%, a viability, T/C [11] of 113% and a viability, T/C [12] of 110%. For the same compound, the viability, T/C [13] was 92.3%, the viability, T/C [14] was 103% and the viability, T/C [15] was 99.7%. It also gave a viability, T/C [16] of 89.6%, a viability, T/C [17] of 109% and a viability, T/C [18] of 118%. It also gave a viability, T/C [19] of 88.8%, a viability, T/C [20] of 92.5% and a viability, T/C [21] of 84%. It also gave a viability, T/C [22] of 94%, a viability, T/C [23] of 120% and a viability, T/C [24] of 117%.
`O=C(c1cc(Cc2n[nH]c(=O)c3ccccc23)ccc1F)N1CCN(C(=O)C2CC2)CC1` + Cc1c(S(C)(=O)=O)c(-c2cc(F)cc(N3CCN(c4ccc(NS(=O)(=O)c5ccc(NC(CCN6CCC(C(=O)OCCCP(=O)(O)O)CC6)CSc6ccccc6)c(S(=O)(=O)C(F)(F)F)c5)cc4)CC3)c2)c(-c2ccc(Cl)cc2)n1C(C)C showed a pIC50 (second compound 0.0316 µM) of under 5.00, a pIC50 (second compound 0.1 µM) of under 5.00 and a pIC50 (second compound 0.316 µM) of under 5.00. The pIC50 (second compound 1 µM) was under 5.00, the pIC50 (second compound 3.16 µM) was under 5.00 and the pIC50 (second compound 10 µM) was 5.94. The viability, T/C [3] was 95.1%, the viability, T/C [4] was 90% and the viability, T/C [5] was 93%. The viability, T/C [6] was 97.3%, the viability, T/C [25] was 93.3% and the viability, T/C [26] was 86.9%. The viability, T/C [9] was 98.3%, the viability, T/C [10] was 86.5% and the viability, T/C [11] was 94.1%. It also gave a viability, T/C [12] of 91.5%, a viability, T/C [27] of 94.6% and a viability, T/C [28] of 81.7%. The viability, T/C [15] was 91.5%, the viability, T/C [16] was 90.3% and the viability, T/C [17] was 87.2%. It also gave a viability, T/C [18] of 85.8%, a viability, T/C [29] of 88.7% and a viability, T/C [30] of 77.1%. It also gave a viability, T/C [21] of 79.4%, a viability, T/C [22] of 76.2% and a viability, T/C [23] of 81.4%. The viability, T/C [24] was 79.3%, the viability, T/C [31] was 73.3% and the viability, T/C [32] was 74.8%. It also gave a viability, T/C [33] of 65.4%, a viability, T/C [34] of 59.8% and a viability, T/C [35] of 60.6%. The viability, T/C [36] was 67.2%, the viability, T/C [37] was 62.8% and the viability, T/C [38] was 54.9%. It also gave a viability, T/C [39] of 54.8%, a viability, T/C [40] of 48.4% and a viability, T/C [41] of 50.3%. The viability, T/C [42] was 51.8%, the viability, T/C [43] was 49.4% and the viability, T/C [44] was 48.2%.
`C=C(F)C(=O)N1CCN(c2nc(OCC3CCCN3C)nc3c2CCN(c2cccc4cccc(Cl)c24)C3)CC1CC#N` (stereo not drawn) + Cc1c(S(C)(=O)=O)c(-c2cc(F)cc(N3CCN(c4ccc(NS(=O)(=O)c5ccc(NC(CCN6CCC(C(=O)OCCCP(=O)(O)O)CC6)CSc6ccccc6)c(S(=O)(=O)C(F)(F)F)c5)cc4)CC3)c2)c(-c2ccc(Cl)cc2)n1C(C)C gave a pIC50 (second compound 0.0316 µM) of 5.25, a pIC50 (second compound 0.1 µM) of 5.31 and a pIC50 (second compound 0.316 µM) of 5.41. The pIC50 (second compound 1 µM) was 5.64, the pIC50 (second compound 3.16 µM) was 5.93 and the pIC50 (second compound 10 µM) was over 7.50. For the same compound, the viability, T/C [3] was 92.4%, the viability, T/C [4] was 95.5% and the viability, T/C [5] was 95.9%. For the same compound, the viability, T/C [6] was 106%, the viability, T/C [25] was 93.1% and the viability, T/C [26] was 7.35%. The viability, T/C [9] was 98.2%, the viability, T/C [10] was 93.5% and the viability, T/C [11] was 90.8%. The viability, T/C [12] was 98.4%, the viability, T/C [27] was 79.5% and the viability, T/C [28] was 1.47%. It also gave a viability, T/C [15] of 92%, a viability, T/C [16] of 85.7% and a viability, T/C [17] of 87%. For the same compound, the viability, T/C [18] was 85.7%, the viability, T/C [29] was 60.8% and the viability, T/C [30] was 0.26%. The viability, T/C [21] was 80.3%, the viability, T/C [22] was 80.4% and the viability, T/C [23] was 72.5%. For the same compound, the viability, T/C [24] was 72.4%, the viability, T/C [31] was 41.8% and the viability, T/C [32] was 0.2%. It also gave a viability, T/C [33] of 62.4%, a viability, T/C [34] of 58.4% and a viability, T/C [35] of 56.4%. The viability, T/C [36] was 54.5%, the viability, T/C [37] was 23.1% and the viability, T/C [38] was 0.22%. For the same compound, the viability, T/C [39] was 46.1%, the viability, T/C [40] was 47.7% and the viability, T/C [41] was 47.4%. The viability, T/C [42] was 41.7%, the viability, T/C [43] was 16.4% and the viability, T/C [44] was 0.26%.
`CCN1CCN(Cc2ccc(Nc3ncc(F)c(-c4cc(F)c5nc(C)n(C(C)C)c5c4)n3)nc2)CC1` + Cc1c(S(C)(=O)=O)c(-c2cc(F)cc(N3CCN(c4ccc(NS(=O)(=O)c5ccc(NC(CCN6CCC(C(=O)OCCCP(=O)(O)O)CC6)CSc6ccccc6)c(S(=O)(=O)C(F)(F)F)c5)cc4)CC3)c2)c(-c2ccc(Cl)cc2)n1C(C)C was tested, and the pIC50 (second compound 0.0316 µM) was under 6.00, the pIC50 (second compound 0.1 µM) was under 6.00 and the pIC50 (second compound 0.316 µM) was under 6.00. It also gave a pIC50 (second compound 1 µM) of under 6.00, a pIC50 (second compound 3.16 µM) of under 6.00 and a pIC50 (second compound 10 µM) of 6.41. For the same compound, the viability, T/C [1] was 98.2%, the viability, T/C [2] was 104% and the viability, T/C [3] was 87.9%. For the same compound, the viability, T/C [4] was 96.6%, the viability, T/C [5] was 109% and the viability, T/C [6] was 106%. It also gave a viability, T/C [7] of 94%, a viability, T/C [8] of 95.5% and a viability, T/C [9] of 92.1%. For the same compound, the viability, T/C [10] was 90.5%, the viability, T/C [11] was 103% and the viability, T/C [12] was 96.8%. The viability, T/C [13] was 90.9%, the viability, T/C [14] was 91.2% and the viability, T/C [15] was 84.4%. For the same compound, the viability, T/C [16] was 88.5%, the viability, T/C [17] was 90.3% and the viability, T/C [18] was 90%. For the same compound, the viability, T/C [19] was 79.7%, the viability, T/C [20] was 81.3% and the viability, T/C [21] was 76%. The viability, T/C [22] was 79%, the viability, T/C [23] was 80.6% and the viability, T/C [24] was 72.3%. For the same compound, the viability, T/C (second compound 3.16 µM, first compound 0.00316 µM) was 61.8%, the viability, T/C (second compound 3.16 µM, first compound 0.01 µM) was 61.5% and the viability, T/C [33] was 62.4%. For the same compound, the viability, T/C [34] was 62.9%, the viability, T/C [35] was 60% and the viability, T/C [36] was 56%. The viability, T/C (second compound 10 µM, first compound 0.00316 µM) was 49.1%, the viability, T/C (second compound 10 µM, first compound 0.01 µM) was 52.6% and the viability, T/C [39] was 51.4%. The viability, T/C [40] was 52.9%, the viability, T/C [41] was 51.2% and the viability, T/C [42] was 44.8%.
